Columns and labels:
[1] = system: postnatal mouse astrocytes; settings: co-transfected with Ascl1-RFP, 4 days
Experimental: (C) Histogram of astroglial cultures transfected with Ascl1-RFP-encoding plasmid alone or in combination with WT-Bcl-2, EE-Bcl-2 or A-Bcl-2 at 4 days post-transfection (DPT). The number of transfected cells (RFP+) at final time point (4 DPT) was normalized to the initial number of transfected cells (1 DPT) to calculate the % of survival. The % of neuronal conversion was analysed by β-III-tubulin immunostaining and normalized to total number of RFP+ cells at the end of the experiment. Error bars indicate ±SD. *p<0.05, **p<0.01; ANOVA Tukeys post-test.
A, Quantifications at 5 DPT (days post-transfection) showing the effect of the inhibitor of ferroptosis, α-toc and the inhibitor of apoptosis, ZVAD in survival/efficiency of conversion of astroglial cells transfected with Ascl1-RFP.
C, Percentage of neurons in astroglial cells transfected with Ascl1-encoding plasmid alone or in combination with Bcl-2 and/or Vdr at 5 DPT after 4 days of treatment with calcitriol or untreated.
After removal of the meninges, grey matter tissue was dissected from P5-P7 cerebral cortex of C57BL/6J mice and dissociated mechanically. Subsequently, cells were centrifuged for 5 min at 1000 rpm, re-suspended, and plated in medium consisting of DMEM/F12 (Gibco), 3.5 mM glucose (Sigma), 10% fetal calf serum (Gibco), 5% horse serum (Gibco), penicillin/streptomycin (Gibco) and supplemented with B27 (Gibco), 10 ng/mL epidermal growth factor (EGF, Roche) and 10 ng/mL fibroblast growth factor 2 (FGF2, Roche). After one week expansion cells were harvested using trypsin/EDTA (Gibco) and plated onto poly-D-lysine (Sigma-Aldrich) coated glass coverslips in 24-well plates (BD Biosciences) or directly onto the plastic for time lapse experiments at a density of 60,000 cells per well in the same medium. After 24 hours cells were either transfected with plasmid or infected with retroviral vectors and after further 24 hours medium was changed to differentiation medium composed of DMEM/F12 high glucose with GlutaMAX, penicillin/streptomycin and B27 supplement (Gibco) to allow neuronal differentiation.
For transfection DNA-liposome complexes were prepared in Optimem medium (Invitrogen) using the retroviral plasmids described below and Lipofectamine 2000 (Invitrogen). Astrocyte cultures were exposed to DNA-liposome complexes at a concentration of 0.5 μg DNA per 400 μl of Optimem medium for 4 hours and cultured after that in the differentiation medium as above.
Cells were fixed in 4% paraformaldehyde (PFA) in phosphate-buffered saline (PBS) for 10 min at room temperature (RT), washed in PBS and pretreated in 0.5% Triton X-100 in PBS for 30 min, followed by incubation in 2% BSA and 0.5% Triton X-100 in PBS for 30 min. Primary antibodies were incubated on specimen overnight at 4° C. in 2% BSA, 0.5% Triton X-100 in PBS.

MEFs = settings: MyoD + A-Bcl-2 vs MyoD/GFP
[2] = system: Mouse embryonic fibroblasts (MEFs); test: Fibroblast-to-neuron reprogramming of MEFs with retroviral vectors, β-III-tubulin immunostaining; assay type: cell-based
[3] = system: astroglial cells transfected with Ascl1-RFP; test: Lipid peroxidation (C11-Bodipy staining) and glutathione detection during reprogramming; assay type: cell-based, mouse; settings: co-transfected with Ascl1, 2 DPT
Text: C, Micrographs show oxidized lipids (C11-Bodipy staining) at 2 DPT in astroglial cells transfected with Ascl1-REP alone or in combination with EE-Bcl-2 or A-Bcl-2. Note higher levels of oxidation in cells transfected with only Ascl1 or Ascl1+EE-BCl-2 (black arrows) compare to cells co-transfected with Ascl1+A-Bcl-2 (black arrowheads). High magnification pictures show partial co-localization of C11-Bodipy staining and DAPI in Ascl1-expressing cells contrarily to cells co-transfected with Ascl1+EE-Bcl-2 (see arrows).
D, Pictures show glutathione (GSH) detection of same cells shown in C. Cells with normal or increased levels of GSH are depicted by arrowheads and arrows respectively.
These observations open the question of why EE-Bcl-2 has no effect in neuronal reprogramming while A-Bcl-2 has.
For the detection of oxidative stress we used CellROX green Reagent (Life technologies, C10444) according with the described protocol and fluorescence was detected by microscope (see below).

A-Bcl-2: S70A recombinant Bcl-2 with reduced ability to interact with Bax, mimics the un-phosphorylated form
effect on cell survival during reprogramming [1]: decreased survival compared to those transfected with WT-Bcl-2- or EE-Bcl-2-encoding plasmids | effect on proportion of neuronal conversion mediated by Ascl1 ([1]; β-III-tubulin): increased proportion of neurons induced from the transfected astrocytes | speed of conversion into skeletal muscle cells (MEFs): converted much faster into skeletal muscle cells | neuronal conversion in MEFs (β-III-tubulin) ([2]; Ascl1-based retroviral vectors, 14 days after infection): > 75% | increase of proportion of neurons induced from MEFs ([2]; Neurog2 + A-Bcl-2 vs Neurog2/RFP): 6 × | proportion of neurons induced from MEFs, of all infected cells ([2]; Neurog2-based retroviral vectors, 15 days after infection): 63% | effect on lipid peroxidation / oxidative stress (C11-Bodipy) [3]: very efficiently reducing oxidative stress

Source: patent publication US10752881B2, “Trans-differentiation of differentiation cells” (Helmholtz Zentrum München-Deutsches Forschungszentrum für …, priority 2014, dated 2020)
